# Reference: US6030955A, “Methods of affecting intracellular phosphorylation of tyrosine using phosphorothioate oligonucleotides, and antiangiogenic and antiproliferative uses thereof” (The Trustees of Columbia University in The City of New York …, priority 1996, dated 2000)
# Tested on: cell surface flk-1
# Assay: FACS analysis of blockade of anti-flk-1 MAb binding to C441 cells
# Design: species or system mouse/human
# Conditions: cells preincubated with 10 μg/ml heparin
# Experimental: For binding studies, C441 cells were removed with 2 mM EDTA in PBS, washed with cold Hanks balanced salt solution supplemented with 1% BSA (HBSS-BSA) and then resuspended in 100 μl of the same buffer at a concentration of 1 million cells per sample. Where indicated, cells were incubated with 2 μM oligodeoxynucleotides of 10 μg/ml heparin. After a 30 minute incubation on ice, cells were washed and reincubated for 30 minutes with 10 μg of the appropriate MAb. After washing, a 1:40 dilution of goat anti-mouse lgG conjugated to FITC (TAGO) was added for a final 30 minute incubation on ice. Cells were then analyzed on a Coulter Epics Elite Cytometer.
substance,measurement,value
heparin,binding of anti-flk-1 MAb 73 to C441 cells,inhibition
same,binding of anti-flk-1 MAb 115 to C441 cells,inhibition
